Measured values published in PubChem BioAssay (NCI).
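Results reflect a 48-hour exposure of cells in 96-well plates to compound at five concentrations. Abbreviation: GI50, concentration required for 50% inhibition of growth. Definition used: TGI = concentration required for complete inhibition of growth.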

Key:
Assay in all cases: NCI tumour cell line growth inhibition, 48 h
[1] = test system: CCRF-CEM leukemia
[2] = test system: UACC-257 melanoma
[3] = test system: UO-31 renal
[4] = test system: HCC-2998 colon
[5] = test system: SK-OV-3 ovarian
[6] = test system: RXF 393 renal
[7] = test system: MDA-MB-231 breast
[8] = test system: HCT-116 colon
[9] = test system: NCI-H23 lung
[10] = test system: MDA-MB-435
[11] = test system: RPMI-8226 leukemia
[12] = test system: 786-0 renal
[13] = test system: MOLT-4 leukemia
[14] = test system: NCI-H460 lung
[15] = test system: SR leukemia
[16] = test system: LOX IMVI melanoma
[17] = test system: COLO 205 colon
[18] = test system: IGROV1 ovarian
[19] = test system: DU-145 prostate
[20] = test system: SF-268 CNS
[21] = test system: OVCAR-5 ovarian
[22] = test system: SF-539 CNS
[23] = test system: KM12 colon
[24] = test system: TK-10 renal
[25] = test system: MCF7 breast
[26] = test system: HS 578T breast
[27] = test system: EKVX NSCLC
[28] = test system: CAKI-1 renal
[29] = test system: K-562 leukemia
[30] = test system: OVCAR-3 ovarian
[31] = test system: SN12C renal
[32] = test system: BT-549 breast
[33] = test system: MDA-MB-468 breast
[34] = test system: HCT-15 colon
[35] = test system: A549 NSCLC
[36] = test system: SF-295 CNS
[37] = test system: ACHN renal
[38] = test system: UACC-62 melanoma
[39] = test system: SW-620 colon
[40] = test system: NCI/ADR-RES ovarian
[41] = test system: SNB-19 CNS
[42] = test system: SNB-75 CNS
[43] = test system: M14 melanoma
[44] = test system: OVCAR-8 ovarian
[45] = test system: HL-60(TB) leukemia
[46] = test system: HOP-62 NSCLC
[47] = test system: U251 CNS
[48] = test system: OVCAR-4 ovarian
[49] = test system: PC-3 prostate
[50] = test system: SK-MEL-2 melanoma
[51] = test system: SK-MEL-5 melanoma
[52] = test system: A498 renal
[53] = test system: MALME-3M melanoma
[54] = test system: HT29 colon
[55] = test system: SK-MEL-28 melanoma
[56] = test system: NCI-H226 lung
[57] = test system: NCI-H522 lung
[58] = test system: T-47D breast
[59] = test system: HOP-92 NSCLC

**Q.** What does the source list for `O=C(CNc1nc(-c2ccccc2)cs1)Nc1ccc([N+](=O)[O-])cc1Cl`?
**A.** GI50 [1]: 3.05 µM; TGI [1]: 12.2 µM; GI50 [2]: 7.55 µM; TGI [2]: 20.2 µM; GI50 [3]: 3.37 µM; TGI [3]: 15.5 µM; GI50 [4]: 6.94 µM; TGI [4]: 19.7 µM; GI50 [5]: 6.18 µM; TGI [5]: 19.2 µM; GI50 [6]: 4.38 µM; TGI [6]: 15 µM; GI50 [7]: 4.94 µM; TGI [7]: 17.1 µM; GI50 [8]: 3.36 µM; TGI [8]: 12.6 µM; GI50 [9]: 4.6 µM; TGI [9]: 17 µM; GI50 [10]: 4.88 µM; TGI [10]: 16.9 µM; GI50 [11]: 2.99 µM; TGI [11]: 13.2 µM; GI50 [12]: 3.3 µM; TGI [12]: 13.2 µM; GI50 [13]: 3.17 µM; TGI [13]: 11.6 µM; GI50 [14]: 9.34 µM; TGI [14]: 21.2 µM; GI50 [15]: 4.67 µM; TGI [15]: 17.4 µM; GI50 [16]: 2.96 µM; TGI [16]: 11.7 µM; GI50 [17]: 11.5 µM; TGI [17]: 23.7 µM; GI50 [18]: 4.29 µM; TGI [18]: 15.5 µM; GI50 [19]: 10.6 µM; TGI [19]: 22.5 µM; GI50 [20]: 3.98 µM; TGI [20]: 16.2 µM; GI50 [21]: 6.18 µM; TGI [21]: 20.2 µM; GI50 [22]: 5.36 µM; TGI [22]: 17.6 µM; GI50 [23]: 4.17 µM; TGI [23]: 14.9 µM; GI50 [24]: 8.04 µM; TGI [24]: 20.5 µM; GI50 [25]: 3.26 µM; TGI [25]: 13.4 µM; GI50 [26]: 3.74 µM; TGI [26]: 15.1 µM; GI50 [27]: 3.44 µM; TGI [27]: 14.3 µM; GI50 [28]: 3.34 µM; TGI [28]: 14.5 µM; GI50 [29]: 3.42 µM; TGI [29]: 13.9 µM; GI50 [30]: 3.62 µM; TGI [30]: 14.1 µM; GI50 [31]: 3.72 µM; TGI [31]: 13.9 µM; GI50 [32]: 2.29 µM; TGI [32]: 7.66 µM; GI50 [33]: 1.96 µM; TGI [33]: 4.88 µM; GI50 [34]: 3.34 µM; TGI [34]: 12.8 µM; GI50 [35]: 6.05 µM; TGI [35]: 19 µM; GI50 [36]: 4.47 µM; TGI [36]: 16.6 µM; GI50 [37]: 5.51 µM; TGI [37]: 18.2 µM; GI50 [38]: 3.6 µM; TGI [38]: 15.4 µM; GI50 [39]: 4.47 µM; TGI [39]: 16.2 µM; GI50 [40]: 4.11 µM; TGI [40]: 14.6 µM; GI50 [41]: 7.71 µM; TGI [41]: 20.3 µM; GI50 [42]: 1.73 µM; TGI [42]: 9.94 µM; GI50 [43]: 3.6 µM; TGI [43]: 13.5 µM; GI50 [44]: 5.69 µM; TGI [44]: 18.3 µM; GI50 [45]: 2.8 µM; TGI [45]: 11 µM; GI50 [46]: 7.02 µM; TGI [46]: 20 µM; GI50 [47]: 4.42 µM; TGI [47]: 16.8 µM; GI50 [48]: 6.55 µM; TGI [48]: 19.5 µM; GI50 [49]: 5.17 µM; TGI [49]: 17.9 µM; GI50 [50]: 8.86 µM; TGI [50]: 21 µM; GI50 [51]: 3.66 µM; TGI [51]: 14 µM; GI50 [52]: 7.11 µM; TGI [52]: 20.1 µM; GI50 [53]: 9 µM; TGI [53]: 21 µM; GI50 [54]: 7.63 µM; TGI [54]: 20.4 µM; GI50 [55]: 12.1 µM; TGI [55]: 24.5 µM; GI50 [56]: 6.78 µM; TGI [56]: 19.3 µM; GI50 [57]: 2.9 µM; TGI [57]: 12 µM; GI50 [58]: 3.37 µM; TGI [58]: 13.5 µM; GI50 [59]: 4.28 µM; TGI [59]: 16.7 µM
